This is an account of results in patent US20250114345A1, “COMPOUNDS AND COMPOSITIONS AS CBP/P300 DEGRADERS AND USES THEREOF” (Oncopia Therapeutics, Inc. d/b/a/ SK Life Science Labs, priority 2023, published 2025).

For assay [1], the target named is T1, p300 (Homo sapiens, UniProt Q09472).
T1 construct: host or cells: A549 P300 HiBit cells
Put plainly: P300 degradation, HiBit technology in A549 P300 HiBit cells (2 h). It is filed as cell-based. The note with it: 2 hrs post treatment; for Dmax: A549, A549 P300 HiBit cells; for DC50: A549 P300 HiBit cells. The method in brief:
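Endogenously HiBiT-tagged A549 cells are plated, left overnight, then treated with a compound dilution series at 37 °C and 5% CO2. At the set time, lytic detection buffer is added and plates are shaken 10 min at room temperature before luminescence is measured to derive potency and Dmax.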
Background: HiBiT is a short tag that completes a luciferase, so light tracks the accessible tagged protein.

The target of assay [2] is T2, CBP (Homo sapiens, UniProt Q92793).
T2 construct: host or cells: A549 CBP HiBit cells
T2 sequence (Q92793 whole entry): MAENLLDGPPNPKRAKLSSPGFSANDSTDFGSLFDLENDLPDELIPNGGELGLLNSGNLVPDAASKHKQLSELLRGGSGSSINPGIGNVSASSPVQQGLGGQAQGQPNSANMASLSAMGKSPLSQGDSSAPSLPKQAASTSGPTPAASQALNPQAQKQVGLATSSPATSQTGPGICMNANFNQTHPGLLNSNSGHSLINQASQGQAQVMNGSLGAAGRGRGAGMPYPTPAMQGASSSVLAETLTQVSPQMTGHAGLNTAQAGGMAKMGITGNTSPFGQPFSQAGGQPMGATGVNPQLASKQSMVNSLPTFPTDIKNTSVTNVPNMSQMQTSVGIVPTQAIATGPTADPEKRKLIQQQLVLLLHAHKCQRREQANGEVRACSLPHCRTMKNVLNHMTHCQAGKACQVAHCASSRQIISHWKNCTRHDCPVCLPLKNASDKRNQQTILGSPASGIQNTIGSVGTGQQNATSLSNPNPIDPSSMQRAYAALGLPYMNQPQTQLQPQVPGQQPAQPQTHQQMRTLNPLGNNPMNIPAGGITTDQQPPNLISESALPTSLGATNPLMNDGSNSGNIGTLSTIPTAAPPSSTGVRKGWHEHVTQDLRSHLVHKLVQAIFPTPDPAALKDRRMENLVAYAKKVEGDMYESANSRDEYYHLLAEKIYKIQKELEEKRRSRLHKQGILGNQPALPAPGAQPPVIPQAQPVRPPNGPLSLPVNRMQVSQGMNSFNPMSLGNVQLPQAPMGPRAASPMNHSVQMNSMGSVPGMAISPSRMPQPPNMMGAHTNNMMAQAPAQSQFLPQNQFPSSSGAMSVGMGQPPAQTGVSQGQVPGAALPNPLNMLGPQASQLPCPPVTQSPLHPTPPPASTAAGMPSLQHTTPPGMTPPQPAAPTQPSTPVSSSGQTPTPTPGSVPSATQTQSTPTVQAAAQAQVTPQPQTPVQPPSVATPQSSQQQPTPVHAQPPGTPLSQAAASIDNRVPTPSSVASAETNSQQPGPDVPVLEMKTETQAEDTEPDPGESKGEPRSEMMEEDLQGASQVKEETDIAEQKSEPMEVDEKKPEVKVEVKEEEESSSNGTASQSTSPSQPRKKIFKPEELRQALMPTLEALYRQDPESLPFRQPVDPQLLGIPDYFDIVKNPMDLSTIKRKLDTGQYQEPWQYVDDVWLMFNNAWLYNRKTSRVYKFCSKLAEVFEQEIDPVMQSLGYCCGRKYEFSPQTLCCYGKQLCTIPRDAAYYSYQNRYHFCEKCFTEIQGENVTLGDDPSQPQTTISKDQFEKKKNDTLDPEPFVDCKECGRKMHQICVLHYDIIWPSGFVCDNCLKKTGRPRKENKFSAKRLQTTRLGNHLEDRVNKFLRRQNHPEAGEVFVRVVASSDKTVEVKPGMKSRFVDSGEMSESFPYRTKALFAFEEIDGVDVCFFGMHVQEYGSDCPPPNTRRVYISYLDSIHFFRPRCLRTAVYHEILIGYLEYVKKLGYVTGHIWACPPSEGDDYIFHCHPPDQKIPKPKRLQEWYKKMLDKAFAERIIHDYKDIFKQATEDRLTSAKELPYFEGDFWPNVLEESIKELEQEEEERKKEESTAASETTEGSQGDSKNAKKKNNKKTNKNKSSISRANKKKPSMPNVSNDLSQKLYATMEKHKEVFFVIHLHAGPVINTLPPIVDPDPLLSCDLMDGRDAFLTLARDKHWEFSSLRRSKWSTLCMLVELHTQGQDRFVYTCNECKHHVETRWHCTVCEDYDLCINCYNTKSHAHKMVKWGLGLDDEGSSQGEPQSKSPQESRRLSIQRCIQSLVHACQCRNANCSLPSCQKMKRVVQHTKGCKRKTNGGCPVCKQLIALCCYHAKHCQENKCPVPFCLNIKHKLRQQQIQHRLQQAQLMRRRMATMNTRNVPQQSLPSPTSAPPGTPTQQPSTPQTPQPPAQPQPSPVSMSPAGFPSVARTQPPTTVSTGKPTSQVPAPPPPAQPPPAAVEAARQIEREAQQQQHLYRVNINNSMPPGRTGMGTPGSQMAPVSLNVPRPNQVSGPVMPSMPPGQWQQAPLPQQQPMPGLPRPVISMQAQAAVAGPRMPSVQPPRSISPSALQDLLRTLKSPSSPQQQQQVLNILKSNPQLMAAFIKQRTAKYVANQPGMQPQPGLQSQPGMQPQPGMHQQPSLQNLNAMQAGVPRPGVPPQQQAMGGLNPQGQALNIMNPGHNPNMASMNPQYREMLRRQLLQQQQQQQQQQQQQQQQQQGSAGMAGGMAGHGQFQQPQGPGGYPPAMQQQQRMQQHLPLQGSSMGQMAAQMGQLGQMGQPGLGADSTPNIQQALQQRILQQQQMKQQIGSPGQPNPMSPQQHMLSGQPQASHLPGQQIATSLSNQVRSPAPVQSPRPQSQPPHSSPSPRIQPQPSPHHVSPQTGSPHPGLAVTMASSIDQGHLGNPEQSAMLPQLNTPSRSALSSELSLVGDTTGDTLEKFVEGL
Kind of assay: CBP degradation, HiBit technology in A549 CBP HiBit cells (24 h). It is filed as cell-based. As to conditions: 24 hrs post treatment. The protocol: p300 and CBP degradation potency and Dmax were determined using in cell western (ICW) assay technology in H1299 cells or HiBit technology in A549 HiBit cells.
A549 P300 HiBit and A549 CBP HiBit cells were plated in separate 384-well, TC treated, white-opaque, flat-bottomed microplate. Cells were plated at a cell density of 0.2×10^4 cells per well in assay media comprised of F-12K, 10% heat inactivated FBS, and 1% penicillin/streptomycin. Assay microplates containing HiBit cells were placed in a 37° C., 5% CO2, tissue culture incubator and left to equilibrate overnight. The next day cells were treated with serial dilutions of test compound made up of 10 mM stock solutions in DMSO. 384-Well plates containing treated cells were then placed back into a 37° C., 5% CO2, tissue culture incubator. Assay microplates containing A549 P300 HiBit cells were incubated for 2 hrs post treatment before P300 destruction was assessed, while microplates containing A549 CBP HiBit cells were incubated for 24 hrs post treatment before CBP destruction was determined. On the day of each assay time point, microplates were removed from the tissue culture incubator and prepared HiBit Lytic detection buffer (Promega, cat #N3O40) was added to each plate. Plates were covered with aluminum foil and incubated for ten minutes at room temperature on an orbital shaker. After incubation, luminescent signal of each plate was measured using the Envision instrument (Perkin Elmer).

T1 sequence (Q09472 whole entry): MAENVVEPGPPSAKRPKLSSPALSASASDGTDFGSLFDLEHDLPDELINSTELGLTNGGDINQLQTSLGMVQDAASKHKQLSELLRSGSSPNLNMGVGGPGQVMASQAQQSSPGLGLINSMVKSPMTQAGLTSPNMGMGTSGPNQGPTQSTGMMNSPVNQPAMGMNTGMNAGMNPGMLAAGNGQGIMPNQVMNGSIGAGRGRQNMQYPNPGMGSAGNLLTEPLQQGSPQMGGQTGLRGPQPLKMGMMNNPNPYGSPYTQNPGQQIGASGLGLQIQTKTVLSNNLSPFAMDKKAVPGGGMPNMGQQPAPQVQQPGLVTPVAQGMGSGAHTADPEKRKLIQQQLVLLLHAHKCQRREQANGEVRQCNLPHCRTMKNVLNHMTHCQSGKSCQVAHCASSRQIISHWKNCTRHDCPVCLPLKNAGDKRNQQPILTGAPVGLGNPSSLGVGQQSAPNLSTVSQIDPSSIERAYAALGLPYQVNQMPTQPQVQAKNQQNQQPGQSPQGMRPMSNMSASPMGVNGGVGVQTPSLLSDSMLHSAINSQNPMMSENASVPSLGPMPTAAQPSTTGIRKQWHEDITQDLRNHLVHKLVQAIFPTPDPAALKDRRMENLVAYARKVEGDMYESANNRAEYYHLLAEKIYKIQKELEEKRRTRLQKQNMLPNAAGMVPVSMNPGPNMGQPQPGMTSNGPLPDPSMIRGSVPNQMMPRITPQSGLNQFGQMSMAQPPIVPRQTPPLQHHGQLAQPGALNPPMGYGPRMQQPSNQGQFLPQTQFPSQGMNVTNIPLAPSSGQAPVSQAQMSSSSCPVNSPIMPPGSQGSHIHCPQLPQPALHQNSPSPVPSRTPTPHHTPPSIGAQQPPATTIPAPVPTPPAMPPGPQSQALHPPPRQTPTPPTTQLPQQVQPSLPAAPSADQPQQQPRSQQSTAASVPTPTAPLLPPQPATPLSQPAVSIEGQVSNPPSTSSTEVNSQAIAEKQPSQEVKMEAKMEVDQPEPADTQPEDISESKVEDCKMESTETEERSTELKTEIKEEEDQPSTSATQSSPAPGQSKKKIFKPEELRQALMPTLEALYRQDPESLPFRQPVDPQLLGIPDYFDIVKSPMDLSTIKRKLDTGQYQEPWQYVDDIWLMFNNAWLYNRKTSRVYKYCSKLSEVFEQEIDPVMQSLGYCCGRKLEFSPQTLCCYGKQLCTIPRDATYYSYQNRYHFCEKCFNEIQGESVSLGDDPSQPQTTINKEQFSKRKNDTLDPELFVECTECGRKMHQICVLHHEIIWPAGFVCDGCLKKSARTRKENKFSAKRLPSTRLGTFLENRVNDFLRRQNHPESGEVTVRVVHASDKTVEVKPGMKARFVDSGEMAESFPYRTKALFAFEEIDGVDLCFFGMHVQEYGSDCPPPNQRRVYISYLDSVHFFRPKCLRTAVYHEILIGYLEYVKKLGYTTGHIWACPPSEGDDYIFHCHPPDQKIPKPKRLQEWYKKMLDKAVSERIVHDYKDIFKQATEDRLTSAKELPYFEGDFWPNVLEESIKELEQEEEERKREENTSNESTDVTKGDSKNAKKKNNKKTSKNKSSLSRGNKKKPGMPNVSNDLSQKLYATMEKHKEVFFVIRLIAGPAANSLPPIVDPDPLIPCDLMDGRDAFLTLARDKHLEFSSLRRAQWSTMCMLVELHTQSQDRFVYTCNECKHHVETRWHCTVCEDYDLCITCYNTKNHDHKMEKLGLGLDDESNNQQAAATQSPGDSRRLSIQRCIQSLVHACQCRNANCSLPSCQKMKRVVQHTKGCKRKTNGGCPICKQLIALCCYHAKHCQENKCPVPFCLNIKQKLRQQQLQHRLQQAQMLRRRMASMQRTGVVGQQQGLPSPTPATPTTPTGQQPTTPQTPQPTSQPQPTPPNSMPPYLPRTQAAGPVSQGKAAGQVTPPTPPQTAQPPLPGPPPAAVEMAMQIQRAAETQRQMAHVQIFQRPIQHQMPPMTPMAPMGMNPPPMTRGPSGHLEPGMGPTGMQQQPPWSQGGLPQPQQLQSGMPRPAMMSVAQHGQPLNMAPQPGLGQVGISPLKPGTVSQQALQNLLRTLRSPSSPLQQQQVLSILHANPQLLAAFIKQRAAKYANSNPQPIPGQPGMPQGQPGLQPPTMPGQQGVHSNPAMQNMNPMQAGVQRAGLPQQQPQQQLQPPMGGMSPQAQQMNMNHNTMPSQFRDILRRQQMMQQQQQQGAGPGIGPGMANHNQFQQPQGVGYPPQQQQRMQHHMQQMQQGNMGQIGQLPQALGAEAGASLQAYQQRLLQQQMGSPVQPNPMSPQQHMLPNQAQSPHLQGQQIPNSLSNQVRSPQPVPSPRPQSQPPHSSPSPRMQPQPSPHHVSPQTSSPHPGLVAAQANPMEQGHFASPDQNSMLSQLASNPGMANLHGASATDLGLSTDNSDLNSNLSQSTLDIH

As a reminder, the Dmax is the largest share of the target that was removed. A higher Dmax goes with a fuller loss of target. As a reminder, the DC50 is the midpoint of the concentration-degradation curve. A high value points to a less potent degrader. `Cn1c(=O)n(C)c2cc(N3CCOc4nc(-c5ccc(C(=O)NCC#Cc6cc7c(C8CCC(=O)NC8=O)cccc7o6)nc5)ncc43)ccc21` (stereo not drawn) [Example A165, 5-(5-(1,3-dimethyl-2-oxo-2,3-dihydro-1H-benzo[d]imidazol-5-yl)-6,7-dihydro-5H-pyrimido[4,5-b][1,4]oxazin-2-yl)-N-(3-(4-(2,6-dioxopiperidin-3-yl)benzofuran-2-yl)prop-2-yn-1-yl)picolinamide]: in assay [1], the Dmax was above 80% and the 50% degradation concentration (DC50) fell in the range of 1 to 9.9 nM. Moreover, in assay [2], the 50% degradation concentration (DC50) is above 1000 nM and the Dmax is below 20%.
The corresponding values for `CC(C)c1cc(-c2cccc3cc(-c4ccc(C(=O)NCC#Cc5ccc6oc(F)c(C7CCC(=O)NC7=O)c6c5)nc4)ncc23)cc2c1n(C)c(=O)n2C` (stereo not drawn) [Example A158, N-(3-(3-(2,6-dioxo-piperidin-3-yl)-2-fluorobenzofuran-5-yl)prop-2-yn-1-yl)-5-(8-(7-isopropyl-1,3-dimethyl-2-oxo-2,3-dihydro-1H-benzo [d]imidazol-5-yl)isoquinolin-3-yl)picolinamide] are above 80%, 1 to 9.9 nM, 10 to 99 nM and 40 to 59%.
On to `CC(C)c1cc(-c2cccc3cc(-c4ccc(C(=O)NCC#Cc5cc6c(C7CCC(=O)NC7=O)coc6cc5F)nc4)ncc23)cc2c1n(C)c(=O)n2C` (stereo not drawn) [Example A234, N-(3-(3-(2,6-dioxo-piperidin-3-yl)-6-fluorobenzofuran-5-yl)prop-2-yn-1-yl)-5-(8-(7-isopropyl-1,3-dimethyl-2-oxo-2,3-dihydro-1H-benzo [d]imidazol-5-yl)isoquinolin-3-yl)picolinamide], for which, in assay [1], the Dmax is above 80% and the 50% degradation concentration (DC50) was 1 to 9.9 nM. In assay [2], this molecule came in with a DC50 above 1000 nM and a Dmax below 20%.
For `Cc1cc(-c2ncc3c(n2)OCCN3c2cc(C)c3c(c2)n(C)c(=O)n3C)cnc1C(=O)NCC#Cc1ccc2occ(C3CCC(=O)NC3=O)c2c1` (stereo not drawn) [Example A88, N-(3-(3-(2,6-dioxo-piperidin-3-yl)benzofuran-5-yl)prop-2-yn-1-yl)-3-methyl-5-(5-(1,3,7-trimethyl-2-oxo-2,3-dihydro-1H-benzo [d]imidazol-5-yl)-6,7-dihydro-5H-pyrimido [4,5-b][1,4]oxazin-2-yl)picolinamide], in that order: above 80%, above 1000 nM, above 1000 nM and below 20%.
The corresponding values for `Cc1cc(-c2ncc3c(n2)CCCN3c2cc(C3CCOCC3)cc3c2cc(C)c(=O)n3C)cnc1C(=O)NCC#Cc1ccc2occ(C3CCC(=O)NC3=O)c2c1` (stereo not drawn) [Example B42, 5-(5-(1,3-dimethyl-2-oxo-7-(tetrahydro-2H-pyran-4-yl)-1,2-dihydroquinolin-5-yl)-5,6,7,8-tetrahydropyrido[3,2-d]pyrimidin-2-yl)-N-(3-(3-(2,6-dioxopiperidin-3-yl)benzofuran-5-yl)prop-2-yn-1-yl)-3-methylpicolinamide] are 60 to 79%, 1 to 9.9 nM, above 1000 nM and below 20%.
The corresponding values for `Cc1cc2c(N3CCCc4nc(-c5ccc(C(=O)NCC#Cc6cc7c([C@@H]8CCC(=O)NC8=O)cccc7o6)nc5)ncc43)cc(C3CCOCC3)cc2n(C)c1=O` [Example B39, (S)-5-(5-(1,3-dimethyl-2-oxo-7-(tetrahydro-2H-pyran-4-yl)-1,2-dihydroquinolin-5-yl)-5,6,7,8-tetrahydropyrido[3,2-d]pyrimidin-2-yl)-N-(3-(4-(2,6-dioxopiperidin-3-yl)benzofuran-2-yl)prop-2-yn-1-yl)picolinamide] are above 80%, 1 to 9.9 nM, above 1000 nM and below 20%.
On to `Cc1cc(-c2cc3cccc(-c4cc(C(C)C)c5c(c4)n(C)c(=O)n5C)c3cn2)cnc1C(=O)NCC#Cc1ccc2occ(C3CCC(=O)NC3=O)c2c1` (stereo not drawn) [Example A35, N-(3-(3-(2,6-Dioxopiperidin-3-yl)benzofuran-5-yl)prop-2-yn-1-yl)-5-(8-(7-isopropyl-1,3-dimethyl-2-oxo-2,3-dihydro-1H-benzo[d]imidazol-5-yl)isoquinolin-3-yl)-3-methylpicolinamide], for which, in assay [2], the DC50 was in the range of 10 to 99 nM and the Dmax lay within 20 to 39%.
The corresponding values for `CC(C)c1cc(-c2cccc3cc(-c4ccc(C(=O)NCC#Cc5ccc6c(c5)n(C)c(=O)n6C5CCC(=O)NC5=O)nc4)ncc23)cc2c1n(C)c(=O)n2C` (stereo not drawn) [Example A36, N-(3-(1-(2,6-Dioxopiperidin-3-yl)-3-methyl-2-oxo-2,3-dihydro-1H-benzo[d]imidazol-5-yl)prop-2-yn-1-yl)-5-(8-(7-isopropyl-1,3-dimethyl-2-oxo-2,3-dihydro-1H-benzo[d]imidazol-5-yl)isoquinolin-3-yl)picolinamide] are above 1000 nM and below 20%.
Regarding `CCc1cc(N(C)c2ccn(-c3cnc(C(=O)NCC#Cc4cccc(NC5CCC(=O)NC5=O)c4)c(C)c3)c(=O)c2)c2cc(C)c(=O)n(C)c2c1` (stereo not drawn) [Example B152, N-(3-(3-((2,6-dioxopiperidin-3-yl)amino)phenyl)prop-2-yn-1-yl)-4-((7-ethyl-1,3-dimethyl-2-oxo-1,2-dihydroquinolin-5-yl) (methyl)amino)-5′-methyl-2-oxo-2H-[1,3′-bipyridine]-6′-carboxamide], in assay [1], the maximal degradation (Dmax) is above 80% and the DC50 lay in the range of 1 to 9.9 nM.
In assay [1], `Cc1cc2c(N3CCCc4cc(-c5ccc(C(=O)NCC#Cc6ccc7occ(C8CCC(=O)NC8=O)c7c6)nc5)c(F)cc43)cccc2n(C)c1=O` (stereo not drawn) [Example B129, N-(3-(3-(2,6-dioxopiperidin-3-yl)benzofuran-5-yl)prop-2-yn-1-yl)-5-(7-fluoro-1′,3′-dimethyl-2′-oxo-1′,2′,3,4-tetrahydro-2H-[1,5′-biquinolin]-6-yl)picolinamide] returned a Dmax above 80% and a DC50 of 1 to 9.9 nM.
Take `Cc1cc2c(N3CCOc4cc(-c5ccc(C(=O)NCC#Cc6ccc7occ(C8CCC(=O)NC8=O)c7c6)nc5)c(F)cc43)cc(C3CCOCC3)cc2n(C)c1=O` (stereo not drawn) [Example B99, 5-(4-(1,3-dimethyl-2-oxo-7-(tetrahydro-2H-pyran-4-yl)-1,2-dihydroquinolin-5-yl)-6-fluoro-3,4-dihydro-2H-benzo[b][1,4]oxazin-7-yl)-N-(3-(3-(2,6-dioxopiperidin-3-yl)benzofuran-5-yl)prop-2-yn-1-yl)picolinamide]: in assay [1], the Dmax was above 80% and the half-maximal degradation concentration (DC50) lay in the range of 1 to 9.9 nM.
For `Cc1cc(-c2ncc(N(C)c3cc4c(c(N5CCOCC5)n3)n(C)c(=O)n4C)cn2)cnc1C(=O)NCC#Cc1ccc2occ(C3CCC(=O)NC3=O)c2c1` (stereo not drawn) [Example A147, 5-(5-((1,3-dimethyl-4-morpholino-2-oxo-2,3-dihydro-1H-imidazo[4,5-c]pyridin-6-yl)(methyl)amino)pyrimidin-2-yl)-N-(3-(3-(2,6-dioxopiperidin-3-yl)benzofuran-5-yl)prop-2-yn-1-yl)-3-methylpicolinamide], in assay [1], the Dmax was below 20% and the 50% degradation concentration (DC50) was above 1000 nM.
In the case of `Cc1cc(-c2ccc(Nc3cc(C(C)C)c4c(c3)n(C)c(=O)n4C)cn2)cnc1C(=O)NCC#Cc1ccc2occ(C3CCC(=O)NC3=O)c2c1` (stereo not drawn) [Example A125, N-(3-(3-(2,6-dioxo-piperidin-3-yl)benzofuran-5-yl)prop-2-yn-1-yl)-5-((7-isopropyl-1,3-dimethyl-2-oxo-2,3-dihydro-1H-benzo [d]imidazol-5-yl)amino)-5′-methyl-[2,3′-bipyridine]-6′-carboxamide], in assay [1], the Dmax was 40 to 59% and the half-maximal degradation concentration (DC50) fell in the range of 10 to 99 nM.
For `CC(C)c1cc(N2CCOc3cc(-c4ccc(C(=O)NCC#Cc5ccc6occ(C7CCC(=O)NC7=O)c6c5)nc4)c(Cl)cc32)cc2c1n(C)c(=O)n2C` (stereo not drawn) [Example A113, 5-(6-chloro-4-(7-isopropyl-1,3-dimethyl-2-oxo-2,3-dihydro-1H-benzo[d]imidazol-5-yl)-3,4-dihydro-2H-benzo[b][1,4]oxazin-7-yl)-N-(3-(3-(2,6-dioxopiperidin-3-yl)benzofuran-5-yl)prop-2-yn-1-yl)picolinamide], in that order: above 80% and 10 to 99 nM.
The corresponding values for `COc1cc(N2CCOc3cc(-c4ccc(C(=O)NCC#Cc5ccc6occ(C7CCC(=O)NC7=O)c6c5)nc4)c(F)cc32)c2cc(C)c(=O)n(C)c2c1` (stereo not drawn) [Example B147, N-(3-(3-(2,6-dioxopiperidin-3-yl)benzofuran-5-yl)prop-2-yn-1-yl)-5-(6-fluoro-4-(7-methoxy-1,3-dimethyl-2-oxo-1,2-dihydro-quinolin-5-yl)-3,4-dihydro-2H-benzo[b][1,4]oxazin-7-yl)picolinamide] are above 80% and 1 to 9.9 nM.
